Reference: US12577240B2, “Antiviral heteroaryl ketone derivatives” (Pfizer Inc., priority 2020, dated 2026)

Legend:
[1] = biological target: T1, full length SARS-CoV-2 3CL protease (Severe acute respiratory syndrome coronavirus 2, UniProt P0DTD1); assay: SARS-CoV-2 Coronavirus 3C Protease FRET Assay; type: biochemical; conditions: 15 nM enzyme, 25 μM peptide substrate, 60 minutes at 23° C., Morrison equation fit; read-out: FRET Assay Geometric Mean Ki
T1 construct: measures the activity of full length SARS-CoV-2 3CL protease

[2] = test system: SARS-CoV-2 (USA_WA1/2020) in VeroE6 cells enriched for hACE2 expression; assay: Antiviral Activity from SARS-CoV-2 Infection (cytopathic effect, Cell Titer-Glo cell viability); type: cell-based; conditions: Severe acute respiratory syndrome coronavirus 2, Vero C1008, 72 h; VeroE6 cells enriched for hACE2, multiplicity of infection 0.002, 3-day incubation; alone or with 2 μM CP-100356 (table does not say which); read-out: Antiviral Assay Geometric Mean EC50

Row | SMILES | Ki [1] [nM] | EC50 [2] [nM]
1 | CC(C)[C@H](NS(C)(=O)=O)C(=O)N1CC2(CC2)C[C@H]1C(=O)N[C@@H](C[C@@H]1CCNC1=O)C(=O)c1nc2ccccc2s1 [Example 1, (6S)—N-{(2S)-1-(1,3-Benzothiazol-2-yl)-1-oxo-3-[(3S)-2-oxopyrrolidin-3-yl]propan-2-yl}-5-{(2S)-3-methyl-2-[(methylsulfonyl)amino]butanoyl}-5-azaspiro[2.4]heptane-6-carboxamide] | 20.2 | 5680
2 | COc1cccc2[nH]c(C(=O)N3C[C@H]4[C@@H]([C@H]3C(=O)N[C@@H](C[C@@H]3CCNC3=O)C(=O)c3nc5ccccc5s3)C4(C)C)cc12 [Example 2, (1R,2S,5S)—N-{(2S)-1-(1,3-Benzothiazol-2-yl)-1-oxo-3-[(3S)-2-oxopyrrolidin-3-yl]propan-2-yl}-3-[(4-methoxy-1H-indol-2-yl)carbonyl]-6,6-dimethyl-3-azabicyclo[3.1.0]hexane-2-carboxamide] | 206 | 
3 | CC(C)[C@H](NS(C)(=O)=O)C(=O)N1C[C@H]2[C@@H]([C@H]1C(=O)N[C@@H](C[C@@H]1CCNC1=O)C(=O)c1nc3c(C(F)(F)F)cccc3s1)C2(C)C [Example 4, (1R,2S,5S)-6,6-Dimethyl-3-[N-(methylsulfonyl)-L-valyl]-N-{(2S)-1-oxo-3-[(3S)-2-oxopyrrolidin-3-yl]-1-[4-(trifluoromethyl)-1,3-benzothiazol-2-yl]propan-2-yl}-3-azabicyclo[3.1.0]hexane-2-carboxamide] | 7.74 | 
4 | CC(C)(C)OC(=O)N[C@H](C(=O)N1C[C@H]2[C@@H]([C@H]1C(=O)N[C@@H](C[C@@H]1CCNC1=O)C(=O)c1nc3ccccc3s1)C2(C)C)C(C)(C)C [Example 6, tert-Butyl {(2S)-1-[(1R,2S,5S)-2-({(2S)-1-(1,3-benzothiazol-2-yl)-1-oxo-3-[(3S)-2-oxopyrrolidin-3-yl]propan-2-yl}carbamoyl)-6,6-dimethyl-3-azabicyclo[3.1.0]hexan-3-yl]-3,3-dimethyl-1-oxobutan-2-yl}carbamate] | 137 | 492
5 | CC1(C)[C@@H]2[C@@H](C(=O)N[C@@H](C[C@@H]3CCNC3=O)C(=O)c3nc4ccccc4s3)N(C(=O)[C@H]3CCCO3)C[C@@H]21 [Example 8, (1R,2S,5S)-N-{(2S)-1-(1,3-benzothiazol-2-yl)-1-oxo-3-[(3S)-2-oxopyrrolidin-3-yl]propan-2-yl}-6,6-dimethyl-3-[(2R)-tetrahydrofuran-2-ylcarbonyl]-3-azabicyclo[3.1.0]hexane-2-carboxamide] | 6330 | 
6 | O=C1NCC[C@H]1C[C@H](NC(=O)[C@@H]1CC2(CC2)CN1C(=O)[C@H]1CCCO1)C(=O)c1nc2ccccc2s1 [Example 9, (6S)-N-{(2S)-1-(1,3-benzothiazol-2-yl)-1-oxo-3-[(3S)-2-oxopyrrolidin-3-yl]propan-2-yl}-5-[(2R)-tetrahydrofuran-2-ylcarbonyl]-5-azaspiro[2.4]heptane-6-carboxamide] | > 10000 | 
7 | CC(C)[C@H](NS(=O)(=O)C1CC1)C(=O)N1C[C@H]2[C@@H]([C@H]1C(=O)N[C@@H](C[C@@H]1CCNC1=O)C(=O)c1nc3ccccc3s1)C2(C)C [Example 10, (1R,2S,5S)-N-{(2S)-1-(1,3-benzothiazol-2-yl)-1-oxo-3-[(3S)-2-oxopyrrolidin-3-yl]propan-2-yl}-3-[N-(cyclopropylsulfonyl)-L-valyl]-6,6-dimethyl-3-azabicyclo[3.1.0]hexane-2-carboxamide] | 19.6 | 
8 | CC(C)(C)[C@H](NS(=O)(=O)C(C)(C)C)C(=O)N1C[C@H]2[C@@H]([C@H]1C(=O)N[C@@H](C[C@@H]1CCNC1=O)C(=O)c1nc3ccccc3s1)C2(C)C [Example 11, (1R,2S,5S)-N-{(2S)-1-(1,3-benzothiazol-2-yl)-1-oxo-3-[(3S)-2-oxopyrrolidin-3-yl]propan-2-yl}-3-[N-(tert-butylsulfonyl)-3-methyl-L-valyl]-6,6-dimethyl-3-azabicyclo[3.1.0]hexane-2-carboxamide] | 13.7 | 155
9 | CC(C)[C@H](NS(=O)(=O)C(C)(C)C)C(=O)N1C[C@H]2[C@@H]([C@H]1C(=O)N[C@@H](C[C@@H]1CCNC1=O)C(=O)c1nc3ccccc3s1)C2(C)C [Example 12, (1R,2S,5S)-N-{(2S)-1-(1,3-benzothiazol-2-yl)-1-oxo-3-[(3S)-2-oxopyrrolidin-3-yl]propan-2-yl}-3-[N-(tert-butylsulfonyl)-L-valyl]-6,6-dimethyl-3-azabicyclo[3.1.0]hexane-2-carboxamide] | 34.2 | 
10 | CC(C)C(=O)N[C@H](C(=O)N1C[C@H]2[C@@H]([C@H]1C(=O)N[C@@H](C[C@@H]1CCNC1=O)C(=O)c1nc3ccccc3s1)C2(C)C)C(C)(C)C [Example 14, (1R,2S,5S)-N-{(2S)-1-(1,3-benzothiazol-2-yl)-1-oxo-3-[(3S)-2-oxopyrrolidin-3-yl]propan-2-yl}-6,6-dimethyl-3-[3-methyl-N-(2-methylpropanoyl)-L-valyl]-3-azabicyclo[3.1.0]hexane-2-carboxamide] | 6.02 | 
11 | CCC(=O)N[C@H](C(=O)N1C[C@H]2[C@@H]([C@H]1C(=O)N[C@@H](C[C@@H]1CCNC1=O)C(=O)c1nc3ccccc3s1)C2(C)C)C(C)(C)C [Example 15, (1R,2S,5S)-N-{(2S)-1-(1,3-benzothiazol-2-yl)-1-oxo-3-[(3S)-2-oxopyrrolidin-3-yl]propan-2-yl}-6,6-dimethyl-3-(3-methyl-N-propanoyl-L-valyl)-3-azabicyclo[3.1.0]hexane-2-carboxamide] | 6.14 | 
12 | CCS(=O)(=O)N[C@H](C(=O)N1C[C@H]2[C@@H]([C@H]1C(=O)N[C@@H](C[C@@H]1CCNC1=O)C(=O)c1nc3ccccc3s1)C2(C)C)C(C)C [Example 16, (1R,2S,5S)-N-{(2S)-1-(1,3-benzothiazol-2-yl)-1-oxo-3-[(3S)-2-oxopyrrolidin-3-yl]propan-2-yl}-3-[N-(ethylsulfonyl)-L-valyl]-6,6-dimethyl-3-azabicyclo[3.1.0]hexane-2-carboxamide] | 10.3 | 
13 | CC(C)(C)C(=O)N[C@H](C(=O)N1C[C@H]2[C@@H]([C@H]1C(=O)N[C@@H](C[C@@H]1CCNC1=O)C(=O)c1nc3ccccc3s1)C2(C)C)C(C)(C)C [Example 17, (1R,2S,5S)-N-{(2S)-1-(1,3-benzothiazol-2-yl)-1-oxo-3-[(3S)-2-oxopyrrolidin-3-yl]propan-2-yl}-3-[N-(2,2-dimethylpropanoyl)-3-methyl-L-valyl]-6,6-dimethyl-3-azabicyclo[3.1.0]hexane-2-carboxamide] | 99.1 | 584
14 | CC(C)(C)[C@H](NS(C)(=O)=O)C(=O)N1C[C@H]2[C@@H]([C@H]1C(=O)N[C@@H](C[C@@H]1CCNC1=O)C(=O)c1nc3ccccc3s1)C2(C)C [Example 18, (1R,2S,5S)-N-{(2S)-1-(1,3-benzothiazol-2-yl)-1-oxo-3-[(3S)-2-oxopyrrolidin-3-yl]propan-2-yl}-6,6-dimethyl-3-[3-methyl-N-(methylsulfonyl)-L-valyl]-3-azabicyclo[3.1.0]hexane-2-carboxamide] | 1.55 | 129
15 | CC(=O)N[C@H](C(=O)N1C[C@H]2[C@@H]([C@H]1C(=O)N[C@@H](C[C@@H]1CCNC1=O)C(=O)c1nc3ccccc3s1)C2(C)C)C(C)(C)C [Example 19, (1R,2S,5S)-3-(N-acetyl-3-methyl-L-valyl)-N-{(2S)-1-(1,3-benzothiazol-2-yl)-1-oxo-3-[(3S)-2-oxopyrrolidin-3-yl]propan-2-yl}-6,6-dimethyl-3-azabicyclo[3.1.0]hexane-2-carboxamide] | 9.77 | 1330
16 | CC1(C)C[C@@H](C(=O)N[C@@H](C[C@@H]2CCNC2=O)C(=O)c2nc3ccccc3s2)N(C(=O)[C@H]2CCCO2)C1 [Example 20, N-{(2S)-1-(1,3-benzothiazol-2-yl)-1-oxo-3-[(3S)-2-oxopyrrolidin-3-yl]propan-2-yl}-4,4-dimethyl-1-[(2R)-tetrahydrofuran-2-ylcarbonyl]-L-prolinamide] | > 10800 | 
